Holding throughout (test): inhibition of tumour cell growth, NCI panel, 48 h
The subject of assay [1] is CAKI-1 renal.
The subject of assay [2] is COLO 205 colon.
Assay [3] relates to HL-60(TB) leukemia.
Assay [4] has as its system HOP-92 NSCLC.
In assay [5] the test system is HS 578T breast.
The subject of assay [6] is NCI-H23 lung.
Assay [7] has as its system SF-539 CNS.
Assay [8] relates to SK-OV-3 ovarian.
The test system of assay [9] is SNB-75 CNS.
Assay [10] deals with UO-31 renal.

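Method: 48-hour compound exposure of cells in 96-well plates, five concentrations, linear interpolation of endpoints. Abbreviation: GI50, concentration required for 50% inhibition of growth. TGI marks complete inhibition of growth.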

With `CCOC(=O)c1ccc(NC(=O)Nc2nncs2)cc1`, the GI50 in assay [1] was 0.427 µM; in assay [2], 0.174 µM; in assay [3] it was 0.106 µM; in assay [5], 0.297 µM; in assay [6], 0.649 µM; in assay [7] it was 0.162 µM. Also, the GI50 in [8] is 0.178 µM; in assay [9], 0.0832 µM; in assay [10], 1.48 µM. In addition, the TGI in assay [1] is greater than 47 µM; in assay [2] it was 2.63 µM; in assay [3], 6.7 µM; in assay [4] it was 0.947 µM; in assay [5], 47.4 µM; in assay [6], 12.1 µM. Moreover, the TGI is 2.36 µM in [7], 3.11 µM in assay [8], 19.3 µM in assay [9] and 28.7 µM in assay [10].
`CC(=O)O[C@H]1C(=O)[C@@]2(C)C(C(OC(=O)c3ccccc3)[C@]3(O)C[C@H](OC(=O)C(OC(=O)CCCC(=O)NCCCN(C)C)C(NC(=O)c4ccccc4)c4ccccc4)C(C)=C1C3(C)C)C1(OC(C)=O)COC1C[C@@H]2O` (some centres undefined): the TGI in [1] was greater than 100 µM; in assay [2] it was 0.0147 µM; in assay [3] it was 0.0832 µM; in [4], 37.2 µM; in [5], 0.0151 µM; in [6], 18.2 µM. For the same molecule, the TGI in assay [7] was found to be 0.0184 µM; in [8] it was 1.45 µM; in assay [9], 0.021 µM; in assay [10], 64 µM.
Turning to `NS(=O)(=O)c1ccc(Nc2cc(-c3cccc(O)c3)[nH]n2)cc1`, the GI50 was greater than 25 µM in [1]; greater than 25 µM in assay [2]; greater than 25 µM in assay [3]; 10.2 µM in assay [4]; greater than 25 µM in assay [5]; greater than 25 µM in assay [6]. Besides, the GI50 is 20.5 µM in assay [7], greater than 25 µM in assay [8], 24.5 µM in assay [9] and greater than 25 µM in assay [10]. In addition, the TGI in assay [1], in assay [2], in assay [3], in assay [4], in assay [5] and in assay [6] was greater than 25 µM throughout. The TGI in assay [7], in assay [8], in assay [9] and in [10] was greater than 25 µM throughout.
In the case of `CC(C)c1[nH]nc(C(N)=O)c1N=NN(C)C`, the TGI in assay [1] is 65.4 µM; in [2], greater than 100 µM; in assay [3] it was greater than 100 µM; in assay [4] it was greater than 100 µM; in assay [5] it was greater than 100 µM; in assay [6], greater than 100 µM. In addition, the TGI in assay [7] was greater than 100 µM; in assay [8] it was greater than 100 µM; in [9], greater than 100 µM; in assay [10], 2.19 µM.

The values are drawn from PubChem BioAssay (NCI).
